Test [1] has as its system Generic Yeast. The test is described as follows: Inoculation (challenge) study in creamy salad dressing, generic yeast. Format: cell-based. To be noted: Experiments 1-4.
In test [2] the test system is Generic Yeast. Described as above. Format: cell-based. To be noted: creamy salad dressing emulsion; for Treatment Performance Generic Yeast LDIC (Log Difference in micro levels as compared to the Initial Count): negative values represent a degree of inhibition; for Treatment Performance Generic Yeast LDPC (Log Difference in micro levels as compared to the Positive Control without treatment): negative values represent degree of inhibition. The source says: (§1) Turning now to the table, provided herein are formulations of a natural antimicrobial tested using a water continuous emulsion with a creamy texture and flavor, such as a creamy style salad dressing. It is noted that not only other types of water continuous emulsions, but also many other types of foods would also benefit from the antimicrobial nature of these formulations. As shown, the emulsion is standardized for a ratio of acid-to-moisture and salt-to-moisture values of a minimum of about 1.5 and about 4.8, respectively. When the emulsion was inoculated individually with cocktails of lactic acid bacteria, general yeast, or acid-tolerant yeast (such as Z. bailii) at approximately 4.0 logs, the emulsion spoils with microbial growth up to 7.0 logs. The overall pH of the present formulations can be anywhere from about 2.0 to about 6.0. Lower pH can often inhibit microbial growth, irrespective of other antimicrobial agents present. In the present formulations however, it was observed that the presence of antimicrobial agents such as cultured milks and/or organic acid salts were effective antimicrobial inhibitors, even at higher pH levels. High concentrations of undissociated organic acids can produce greater microbial inhibition. Increasing pH is associated with decreasing concentrations of undissociated acid. Thus, the microbial inhibition in a food that approaches a pH of 6.0 is unexpected.
(§2) The label LDPC indicates the Log Difference in micro levels as compared to the Positive Control without treatment (negative values represent degree of inhibition). The label LDIC indicates the Log Difference in micro levels as compared to the Initial Count or micro level of that treatment (negative values represent a degree of inhibition).
(§3) Two levels of Ca-Acetate alone and in combination with two levels of nisin and a nisin containing cultured ingredient were compared to determine their effect on typical spoilage (generic) yeast, the preservative resistant yeast, Z. bailii, and Lactobacillus.
(§4) Specifically, the samples were subjected to three different inocula (at log CFU 3-4) that contained microorganisms previously shown to spoil salad dressing. These included a cocktail of seven strains comprising various genera of yeast not known to be preservative resistant, a three strain cocktail of the preservative resistant Zygosaccharomyces bailii, and a three strain cocktail of Lactobacillus spp. (L. plantarum, L. fermentum, L. buchneri). The sample was then incubated at 22 degrees Celsius, and tested weekly for four weeks for the presence of these microorganisms.

The next test relates to Z. bailii. The test is described as follows: Inoculation (challenge) study in creamy salad dressing, acid-tolerant yeast Z. bailii. It is filed as cell-based, Zygosaccharomyces bailii. To be noted: for Treatment Performance Z. bailii LDIC (Log Difference in micro levels as compared to the Initial Count) / Treatment Performance Z. bailii LDPC (Log Difference in micro levels as compared to the Positive Control without treatment): creamy salad dressing emulsion; for Treatment Performance Z. bailii LDIC (Log Difference in micro levels as compared to the Initial Count): negative values represent a degree of inhibition; for Treatment Performance Z. bailii LDPC (Log Difference in micro levels as compared to the Positive Control without treatment): negative values represent degree of inhibition; for inhibition of Z. bailii (in words): Experiments 1-4.
Excerpt: as §1, §2, §3, §4

For test [3], the system named is Lactobacillus. The test is described as follows: Inoculation (challenge) study in creamy salad dressing, Lactobacillus / lactic acid bacteria. It is filed as cell-based, Lactobacillus spp. (L. plantarum, L. fermentum, L. buchneri). The following applies: for Treatment Performance Lactobacillus LDIC (Log Difference in micro levels as compared to the Initial Count) / Treatment Performance Lactobacillus LDPC (Log Difference in micro levels as compared to the Positive Control without treatment): creamy salad dressing emulsion; for Treatment Performance Lactobacillus LDIC (Log Difference in micro levels as compared to the Initial Count): negative values represent a degree of inhibition; for Treatment Performance Lactobacillus LDPC (Log Difference in micro levels as compared to the Positive Control without treatment): negative values represent degree of inhibition.
Excerpt: as §1, §2, §3, §4

The subject of test [4] is Lactobacillus. Described as above. Format: cell-based, Lactobacillus spp. (L. plantarum, L. fermentum, L. buchneri). The following applies: Experiments 1-4.
The mark [5] stands for this setting: listed as three percent Ca-Acetate.
Where [6] appears, read: listed as Three percent Na-Acetate.

This note sets out measurements from patent US20110053832A1, “NATURAL ANTIMICROBIAL COMPOSITION” (KRAFT FOODS GLOBAL BRANDS LLC, priority 2009, published 2011).

Regarding `CC(=O)[O-].CC(=O)[O-].[Ca+2]` [Ca acetate (mid), calcium (Ca) acetate], in the test with Generic Yeast [1] (listed as 1.5 percent Ca-Acetate), the “inhibition of general yeast (in words)” value was “needed to inhibit”. In the test with Generic Yeast [2], the “Treatment Performance Generic Yeast LDIC (Log Difference in micro levels as compared to the Initial Count)” value is listed as −0.5 Log and the “Treatment Performance Generic Yeast LDPC (Log Difference in micro levels as compared to the Positive Control without treatment)” value is given as −2.5 Log. In the test with Z. bailii, the “Treatment Performance Z. bailii LDIC (Log Difference in micro levels as compared to the Initial Count)” value came out at 2 Log and the “Treatment Performance Z. bailii LDPC (Log Difference in micro levels as compared to the Positive Control without treatment)” value worked out at 0.5 Log. In the test with Lactobacillus [3], the “Treatment Performance Lactobacillus LDIC (Log Difference in micro levels as compared to the Initial Count)” value was −1.5 Log and the “Treatment Performance Lactobacillus LDPC (Log Difference in micro levels as compared to the Positive Control without treatment)” value is reported as −0.5 Log.

With `CC(=O)[O-].CC(=O)[O-].[Ca+2]` [3% Ca acetate, calcium (Ca) acetate], in the test on Generic Yeast [1] (setting [5]), the “inhibition of general yeast (in words)” value was “inhibited the growth”. Also, the “Treatment Performance Generic Yeast LDIC (Log Difference in micro levels as compared to the Initial Count)” value in the test on Generic Yeast [2] is −1 Log; with Generic Yeast [2] (listed as Ca acetate (high)), −2 Log. Besides, the “Treatment Performance Generic Yeast LDPC (Log Difference in micro levels as compared to the Positive Control without treatment)” value is on record as −3 Log in the test on Generic Yeast [2] and −4 Log with Generic Yeast [2] (listed as Ca acetate (high)). In addition, the “inhibition of Z. bailii (in words)” value in the test with Z. bailii (listed as 3 percent Ca-Acetate) was “needed to inhibit”; in the test on Z. bailii (setting [5]), “but not Z. bailii”. The “Treatment Performance Z. bailii LDIC (Log Difference in micro levels as compared to the Initial Count)” value came to 1.5 Log in the test on Z. bailii and 0.5 Log in the test on Z. bailii (listed as Ca acetate (high)). Moreover, the “Treatment Performance Z. bailii LDPC (Log Difference in micro levels as compared to the Positive Control without treatment)” value is 0.5 Log in the test on Z. bailii and −1.5 Log in the test with Z. bailii (listed as Ca acetate (high)). In the test with Lactobacillus [3] (Experiments 1-4), the “inhibition of lactic acid bacteria / Lactobacillus (in words)” value is “inhibited the growth”. The “Treatment Performance Lactobacillus LDIC (Log Difference in micro levels as compared to the Initial Count)” value in the test with Lactobacillus [3] is −2.5 Log; in the test on Lactobacillus [3] (listed as Ca acetate (high)), 0.5 Log. Further, the “Treatment Performance Lactobacillus LDPC (Log Difference in micro levels as compared to the Positive Control without treatment)” value with Lactobacillus [3] is listed as −2.5 Log; in the test on Lactobacillus [3] (listed as Ca acetate (high)), 1.5 Log.

For the compound Nisin [Nisin (mid)], in the test with Generic Yeast [2], the “Treatment Performance Generic Yeast LDIC (Log Difference in micro levels as compared to the Initial Count)” value turned out to be 3.5 Log and the “Treatment Performance Generic Yeast LDPC (Log Difference in micro levels as compared to the Positive Control without treatment)” value came to 1.5 Log. For the same compound, in the test with Z. bailii, the “Treatment Performance Z. bailii LDIC (Log Difference in micro levels as compared to the Initial Count)” value was 2 Log and the “Treatment Performance Z. bailii LDPC (Log Difference in micro levels as compared to the Positive Control without treatment)” value amounted to 0 Log. In the test on Lactobacillus [3], the “Treatment Performance Lactobacillus LDIC (Log Difference in micro levels as compared to the Initial Count)” value was −1 Log and the “Treatment Performance Lactobacillus LDPC (Log Difference in micro levels as compared to the Positive Control without treatment)” value is reported as −2.5 Log.

Consider Nisin [Nisin (high)], for which, in the test on Generic Yeast [2], the “Treatment Performance Generic Yeast LDIC (Log Difference in micro levels as compared to the Initial Count)” value came out at 3 Log and the “Treatment Performance Generic Yeast LDPC (Log Difference in micro levels as compared to the Positive Control without treatment)” value amounted to 1.5 Log. In the test on Z. bailii, the “Treatment Performance Z. bailii LDIC (Log Difference in micro levels as compared to the Initial Count)” value stood at 2 Log and the “Treatment Performance Z. bailii LDPC (Log Difference in micro levels as compared to the Positive Control without treatment)” value is given as 0 Log. Besides, in the test with Lactobacillus [3], the “Treatment Performance Lactobacillus LDIC (Log Difference in micro levels as compared to the Initial Count)” value amounted to 0 Log and the “Treatment Performance Lactobacillus LDPC (Log Difference in micro levels as compared to the Positive Control without treatment)” value is given as −2.5 Log.

Consider `CC(=O)[O-].[Na+]` [3% Na acetate, sodium (Na) acetate], for which the “inhibition of general yeast (in words)” value with Generic Yeast [1] (listed as 3 percent Na-Acetate) is given as “did not inhibit”; with Generic Yeast [1] (setting [6]) it was “inhibited all of the tested spoilage organisms”. For the same compound, the “Treatment Performance Generic Yeast LDIC (Log Difference in micro levels as compared to the Initial Count)” value in the test on Generic Yeast [2] is recorded as −3.5 Log; in the test with Generic Yeast [2] (listed as 3% Na Ac), 1 Log. In addition, the “Treatment Performance Generic Yeast LDPC (Log Difference in micro levels as compared to the Positive Control without treatment)” value with Generic Yeast [2] is on record as 0 Log; in the test on Generic Yeast [2] (listed as 3% Na Ac) it was −0.5 Log. Moreover, the “inhibition of lactic acid bacteria / Lactobacillus (in words)” value is recorded as “did not inhibit” in the test with Lactobacillus [4] (listed as 3 percent Na-Acetate) and “inhibited all of the tested spoilage organisms” in the test with Lactobacillus [4] (setting [6]). For the same compound, the results for the “inhibition of Z. bailii (in words)” value in the test on Z. bailii (listed as 3 percent Na-Acetate) and in the test with Z. bailii (setting [6]) were “significant antimycotic inhibition” and “inhibited all of the tested spoilage organisms”, respectively. The “Treatment Performance Z. bailii LDIC (Log Difference in micro levels as compared to the Initial Count)” value in the test on Z. bailii is recorded as −0.5 Log; in the test on Z. bailii (listed as 3% Na Ac), −1 Log. In addition, the “Treatment Performance Z. bailii LDPC (Log Difference in micro levels as compared to the Positive Control without treatment)” value in the test on Z. bailii is reported as −2 Log; with Z. bailii (listed as 3% Na Ac), −3 Log. Further, the “Treatment Performance Lactobacillus LDIC (Log Difference in micro levels as compared to the Initial Count)” value with Lactobacillus [3] is −3.5 Log. Besides, the “Treatment Performance Lactobacillus LDPC (Log Difference in micro levels as compared to the Positive Control without treatment)” value with Lactobacillus [3] is given as 0 Log.
